From patent US9981946B2, “Pyridine-substituted 2-aminopyridine protein kinase inhibitors” (CHIA TAI TIANQING PHARMACEUTICAL GROUP CO., LTD, priority 2014, dated 2018)

System: human non-small cell lung carcinoma NCI-H2228 xenografts
Assay: Therapeutic effect on NCI-H2228 xenografts in nude mice
Assay type: in vivo
Conditions: D0-13 once a day; for Average tumor volume D0: D0 baseline at grouping
Method: The following experimental method was used: Nude mice was inoculated subcutaneously with human non-small cell lung carcinoma NCI-H2228 cells, the mice were randomly grouped (D0) and administered until the tumor grew to 80-200 mm^3. Measuring the tumor volume, weighing the mice, and recording the data twice a week. Tumor volume (V) was calculated as:
[…], wherein a and b represented length and width respectively.
T/C(%)=(T-T0)/(C-C0)×100, wherein T, C respectively represented the tumor volume at the end of the experiment; T0, C0 respectively represented the tumor volume at the start of the experiment.
When tumor regression was observed, T/C(%)=(T-T0)/T0×100, wherein T was the tumor volume at the end of the experiment; T0 was the tumor volume at the start of the experiment.
In the table: the solvent group (distilled water containing 0.1% Tween-80) was a control group, the compound of the treatment groups was formulated with distilled water containing 0.1% Tween-80.
D0-20 represented administrating once a day from day 0 (D0) for consecutive 21 days; D0-13 represented administrating once a day from day 0 (D0) for consecutive 14 days.
P value was obtained from student's t test compared with the control group.
n was the number of mice, for the control group, the number of test mice n was 12, and n was 6 for the treatment group.

COc1cc(N2CCNC[C@@H]2C)ncc1-c1cnc(N)c(O[C@H](C)c2c(Cl)ccc(F)c2Cl)c1 [compound of formula I, 5-((R)-1-(2,6-dichloro-3-fluorophenyl)ethoxy)-4′-methoxy-6′-((S)-2-methylpiperazin-1-yl)-3,3′-bipyridin-6-amine]
Average tumor volume D0 (12.5 mg/kg PO): 134.3 mm^3
% T/C D21 (12.5 mg/kg PO, D21): 22%
Average tumor volume D21 (12.5 mg/kg PO, D21): 394.8 mm^3
% Inhibition rate D21 (12.5 mg/kg PO, D21, 100-T/C(%)): 78%
Average tumor volume D0 (25 mg/kg PO): 131.0 mm^3
Average tumor volume D21 (25 mg/kg PO, D21): 21.7 mm^3
% T/C D21 (25 mg/kg PO, D21, tumor regression, T/C=(T-T0)/T0×100): −83%
